The test addresses T1, Peroxisome proliferator-activated receptor gamma (Homo sapiens, UniProt P37231).
T1 sequence (P37231 whole entry): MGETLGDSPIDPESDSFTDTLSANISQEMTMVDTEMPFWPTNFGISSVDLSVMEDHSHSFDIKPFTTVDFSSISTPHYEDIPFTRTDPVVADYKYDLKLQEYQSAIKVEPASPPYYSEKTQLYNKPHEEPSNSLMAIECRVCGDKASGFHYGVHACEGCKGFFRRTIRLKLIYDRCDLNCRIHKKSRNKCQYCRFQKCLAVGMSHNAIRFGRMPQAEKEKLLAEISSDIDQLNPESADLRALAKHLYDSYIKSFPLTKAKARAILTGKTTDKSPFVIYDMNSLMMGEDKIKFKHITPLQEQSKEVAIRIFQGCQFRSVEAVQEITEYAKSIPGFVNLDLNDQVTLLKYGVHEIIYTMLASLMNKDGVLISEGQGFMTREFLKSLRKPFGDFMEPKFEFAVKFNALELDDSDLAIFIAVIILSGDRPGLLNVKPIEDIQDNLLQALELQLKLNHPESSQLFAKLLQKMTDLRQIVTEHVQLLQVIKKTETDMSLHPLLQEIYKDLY
The experiment in a line: PPARg ligand-binding domain binders, dose response, PPARg partial agonist project, biochemical, fluorescence polarization, PolarScreen (AID 504453). (In general: In fluorescence polarisation assays a small probe gives low polarisation when free and higher when bound to something large.)

The values that follow come from BindingDB's records for doi:10.7270/Q2KP80MW (The Scripps Research Institute Molecular Screening Center, 2011).

pIC50: −log10 of the molar value.

As for `Cc1ccc2nc(N3C(=O)C(=O)C(C(=O)c4ccc(C)o4)C3c3ccco3)sc2c1` (centres undefined), the negative-log IC50 (pIC50) was 4.66.

On to `COc1ccc2nc(N3C(=O)C(=O)C(C(=O)c4ccco4)C3c3ccc(C)o3)sc2c1` (centres undefined), for which the pIC50 was 5.30.

For the molecule `CCOc1ccc2nc(N3C(=O)C(=O)C(C(=O)c4ccco4)C3c3ccco3)sc2c1` (centres undefined) [1-(6-ethoxy-1,3-benzothiazol-2-yl)-2-(2-furanyl)-3-[2-furanyl(oxo)methyl]-4-hydroxy-2H-pyrrol-5-one], the pIC50 is 5.52.

Molecule `Cc1ccc2nc(N3C(=O)C(=O)C(C(=O)c4ccco4)C3c3ccc(C)o3)sc2c1` (centres undefined) [3-[2-furanyl(oxo)methyl]-4-hydroxy-1-(6-methyl-1,3-benzothiazol-2-yl)-2-(5-methyl-2-furanyl)-2H-pyrrol-5-one;oxalic acid] gave a pIC50 of 4.52. Against the preceding molecule, the pIC50 is 1.00 log units lower.

A word on the pIC50: it is the IC50 on a negative log10 scale, so that one unit is a factor of ten. A lower pIC50 goes with a high IC50.
